Some results are limits rather than exact numbers.

The results in this text go back to US7557213B2, “Substituted quinolones and methods of use” (ChemoCentryx, Inc., priority 2005, dated 2009).

This experiment deals with T1, CCXCKR2 receptor (Homo sapiens, UniProt P25106).
T1 construct: expressed in transfected cells; host or cells: MDA-MB-435S transfected with pcDNA3.1(+)-hRDC1 and/or MCF-7 (endogenous receptor)
T1 sequence (P25106 whole entry): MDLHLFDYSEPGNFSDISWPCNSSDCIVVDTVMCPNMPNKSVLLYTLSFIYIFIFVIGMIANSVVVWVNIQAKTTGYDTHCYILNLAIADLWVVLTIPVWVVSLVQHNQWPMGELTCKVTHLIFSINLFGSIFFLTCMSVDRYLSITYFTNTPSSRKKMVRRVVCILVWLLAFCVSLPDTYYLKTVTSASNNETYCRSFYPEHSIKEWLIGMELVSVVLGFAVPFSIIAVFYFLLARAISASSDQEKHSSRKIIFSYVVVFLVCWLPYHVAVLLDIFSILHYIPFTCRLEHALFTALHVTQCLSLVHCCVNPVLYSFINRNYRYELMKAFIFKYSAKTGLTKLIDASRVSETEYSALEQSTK
Description: Displacement of 125I-labeled SDF-1 from the CCXCKR2 receptor on MCF-7 and/or CCXCKR2-transfected MDA-MB-435S cells (radioligand binding, filtration). Particulars: 125I SDF-1, 3 hr at 4° C., MCF-7 and/or MDA-MB-435S cells; read-out: Activity (concentration displacing at least 50% of the SDF-1 from the CCXCKR2 receptor).
On to `COc1ccc(C(=O)c2cn(Cc3cccc(Br)n3)c3ccccc3c2=O)cc1C(=O)N(C)C` [Example 181], for which the IC50 lay in the range of 500 to 20000 nM. The same measure for `Cc1cc(C(=O)c2cn(Cc3cccc(Br)n3)c3ccccc3c2=O)ccc1Cl` [Example 182]: under 100 nM; for `COc1ccc(C(=O)c2cn(Cc3cccc(C)n3)c3ccccc3c2=O)cc1F` [Example 183]: under 100 nM; for `Cc1cccc(Cn2cc(C(=O)c3ccc(Cl)cc3)c(=O)c3ccccc32)n1` [Example 184]: under 100 nM.

On to `Cc1ccc(C(=O)c2cn(Cc3cccc(Br)n3)c3ccccc3c2=O)c(C)n1` [Example 185], for which the IC50 is under 100 nM. Consider `CSc1ccc(C(=O)c2cn(Cc3cccc(Br)n3)c3ccccc3c2=O)cc1` [Example 186], for which the IC50 is under 100 nM. Take `O=C(c1ccc(Cl)s1)c1cn(Cc2cccc(Br)n2)c2ccccc2c1=O` [Example 187]: the IC50 was under 100 nM. As to `O=C(c1ccc(Cl)nc1)c1cn(Cc2cccc(Br)n2)c2ccccc2c1=O` [Example 188], the IC50 was under 100 nM. The same measure for `COc1ccc(C(=O)c2cn(Cc3cccc(Br)n3)c3ccccc3c2=O)cn1` [Example 189]: under 100 nM; for `C[S+]([O-])c1ccc(C(=O)c2cn(Cc3cccc(Br)n3)c3ccccc3c2=O)cc1` (centres unmarked) [Example 190]: 100 to 500 nM. `Cc1cccc(Cn2cc(C(=O)c3cnc4c(c3)OCCO4)c(=O)c3cc(C)c(C)nc32)n1` [Example 191]: the IC50 is 100 to 500 nM.

Consider `COc1ccc(C(=O)c2cn(Cc3cccc(C)n3)c3nc(C)c(C)cc3c2=O)cc1C` [Example 192], for which the IC50 was 100 to 500 nM.

`COc1ccc(C(=O)c2cn(Cc3cccc(Br)n3)c3ncccc3c2=O)cc1OC` [Example 193]: the IC50 is under 100 nM. For the compound `COc1ccc(C(=O)c2cn(Cc3cccc(C#N)n3)c3ncccc3c2=O)cc1C` [Example 194], the IC50 was under 100 nM.

`COc1ccc(C(=O)c2cn(Cc3cccc(C(F)(F)F)n3)c3ncccc3c2=O)cc1C` [Example 195]: the IC50 is under 100 nM. Take `COc1ccc(C(=O)c2cn(Cc3cccc(C(F)(F)F)c3)c3ncccc3c2=O)cc1C` [Example 196]: the IC50 was under 100 nM. `CN(C)c1ccc(C(=O)c2cn(Cc3cccc(Br)n3)c3ccccc3c2=O)cn1` [Example 197]: the IC50 was under 100 nM. As for `COc1ncc(C(=O)c2cn(Cc3cccc(Br)n3)c3ccccc3c2=O)cc1C` [Example 198], the figure is under 100 nM.

`COc1ccc(C(=O)c2cn(Cc3cccc(C)n3)c3nc(C)c(C)cc3c2=O)cc1F` [Example 199]: the IC50 fell in the range of 500 to 20000 nM.

For `O=C(c1ccc(Cl)cc1)c1cn(Cc2cccc(Br)n2)c2ccccc2c1=O` [Example 200], the IC50 was under 100 nM. As for `COc1ccc(C(=O)c2cn(Cc3cccc(Br)n3)c3cccnc3c2=O)cc1C` [Example 201], the figure is 500 to 20000 nM; as for `COc1ccc(C(=O)c2cn(Cc3cccc(C(F)(F)F)n3)c3ccccc3c2=O)cc1C` [Example 202], under 100 nM.

Regarding `Cc1cc(C(=O)c2cn(Cc3cccc(Br)n3)c3ccccc3c2=O)ccc1F` [Example 203], the IC50 is under 100 nM.

Turning to `COc1cc(C(=O)c2cn(Cc3cccc(Br)n3)c3ccccc3c2=O)ccc1Cl` [Example 204], the IC50 is under 100 nM. Turning to `Cc1cccc(Cn2cc(C(=O)c3ccccc3N3CCOCC3)c(=O)c3ccccc32)n1` [Example 205], the IC50 was under 100 nM. For `COc1ccc(C(=O)c2cn(Cc3cccc(C)n3)c3cccnc3c2=O)cc1C` [Example 206], the IC50 is 500 to 20000 nM.

Consider `COc1ccc(C(=O)c2cn(Cc3cccc(C#N)n3)c3ccccc3c2=O)cc1C` [Example 207], for which the IC50 was under 100 nM. Consider `Cc1cccc(Cn2cc(C(=O)c3cc(C)on3)c(=O)c3ccccc32)n1` [Example 208], for which the IC50 was in the range of 500 to 20000 nM. Take `COc1ccc(C(=O)c2cn(Cc3cccc(N)n3)c3ccccc3c2=O)cc1C` [Example 209]: the IC50 lay within 100 to 500 nM.

On to `O=C(c1ccc(O)nc1)c1cn(Cc2cccc(Br)n2)c2ccccc2c1=O` [Example 210], for which the IC50 is 500 to 20000 nM.

Consider `COc1ccc(C(=O)c2cn(Cc3cccc(C#N)n3)c3ccccc3c2=O)cc1F` [Example 211], for which the IC50 is under 100 nM. On to `CCc1ccc(C(=O)c2cn(Cc3cccc(C)n3)c3ccccc3c2=O)cn1` [Example 212], for which the IC50 was under 100 nM.

For the compound `Cc1ccc(C(=O)c2cn(Cc3cccc(O)n3)c3ccccc3c2=O)cc1C` [Example 213], the IC50 was in the range of 500 to 20000 nM. Turning to `Cc1cccc(Cn2cc(C(=O)c3ccc(N(C)C)nc3)c(=O)c3ccccc32)n1` [Example 214], the IC50 was 100 to 500 nM. Consider `COc1ccc(C(=O)c2cn(Cc3cccc(Br)n3)c3ccc(C)nc3c2=O)cc1C` [Example 215], for which the IC50 is under 100 nM.

Turning to `COc1ccc(C(=O)c2cn(Cc3cccc(C)n3)c3ccc(C)nc3c2=O)cc1C` [Example 216], the IC50 was in the range of 500 to 20000 nM. The same measure for `COc1ccc(C(=O)c2cn(Cc3cccc(C(F)(F)F)n3)c3ccccc3c2=O)cc1F` [Example 217]: under 100 nM; for `CC(C)Oc1ccc(C(=O)c2cn(Cc3cccc(Br)n3)c3ccccc3c2=O)cc1` [Example 218]: 100 to 500 nM.

As for `Cc1ncccc1C(=O)c1cn(Cc2cccc(Br)n2)c2ccccc2c1=O` [Example 219], the IC50 lay in the range of 100 to 500 nM. As for `Cc1ccc(C(=O)c2cn(Cc3cccc(Br)n3)c3ccccc3c2=O)cn1` [Example 220], the figure is under 100 nM. The same measure for `Cc1ccc(C(=O)c2cn(Cc3cccc(C)n3)c3ccccc3c2=O)nc1` [Example 221]: 500 to 20000 nM; for `Nc1ccc(C(=O)c2cn(Cc3cccc(Br)n3)c3ccccc3c2=O)cn1` [Example 223]: 500 to 20000 nM. In the case of `O=C(c1ccc(C(F)(F)F)nc1)c1cn(Cc2cccc(Br)c2)c2ccccc2c1=O` [Example 224], the IC50 fell in the range of 500 to 20000 nM.

As to `COc1ccc(C(=O)c2cn(Cc3cncc(C)n3)c3ccccc3c2=O)cc1F` [Example 225], the IC50 was under 100 nM.

Consider `COc1ccc(C(=O)c2cn(Cc3cccc(Br)n3)c3nc(C(F)(F)F)ccc3c2=O)cc1F` [Example 226], for which the IC50 was 500 to 20000 nM. `Cc1ccc(C(=O)c2cn(Cc3cccc(Br)c3)c3ccccc3c2=O)cn1` [Example 227]: the IC50 was under 100 nM.

In the case of `N#Cc1cccc(Cn2cc(C(=O)c3ccc4c(c3)OCCO4)c(=O)c3ccccc32)n1` [Example 228], the IC50 is under 100 nM. Regarding `O=C(c1ccc2c(c1)OCCO2)c1cn(Cc2cccc(C(F)(F)F)n2)c2ccccc2c1=O` [Example 229], the IC50 lay in the range of 100 to 500 nM. For the compound `Nc1cccc(Cn2cc(C(=O)c3ccc4c(c3)OCCO4)c(=O)c3ccccc32)n1` [Example 230], the IC50 fell in the range of 100 to 500 nM. In the case of `O=C(c1ccc2c(c1)OCCO2)c1cn(Cc2cccc(Br)c2)c2ccccc2c1=O` [Example 231], the IC50 is under 100 nM. As for `O=C(c1ccc2c(c1)OCCO2)c1cn(Cc2cccc(C(F)(F)F)c2)c2ccccc2c1=O` [Example 232], the figure is 100 to 500 nM. With `O=C(c1ccc2c(c1)OCCO2)c1cn(Cc2cccc(Cl)c2)c2ccccc2c1=O` [Example 233], the IC50 is under 100 nM. With `COc1ccc(C(=O)c2cn(Cc3cccc(Cl)c3)c3ccc(C)nc3c2=O)cc1C` [Example 234], the IC50 was in the range of 100 to 500 nM.

As for `CCN(CC)c1ccc(C(=O)c2cn(Cc3cccc(Br)c3)c3ccccc3c2=O)cn1` [Example 235], the IC50 is under 100 nM. Consider `O=C(c1ccc(Cl)nc1)c1cn(Cc2cccc(Cl)c2)c2ccccc2c1=O` [Example 236], for which the IC50 is 500 to 20000 nM. As for `COc1ccc(C(=O)c2cn(Cc3cccc(Br)n3)c3ccc(C)nc3c2=O)cc1F` [Example 237], the figure is 500 to 20000 nM; as for `COc1ccc(C(=O)c2cn(Cc3cccc(Br)c3)c3ccc(C)nc3c2=O)cc1F` [Example 238], 500 to 20000 nM; as for `COc1ccc(C(=O)c2cn(Cc3cccc(Br)c3)c3ccccc3c2=O)cn1` [Example 239], 100 to 500 nM.

For `COc1ncc(C(=O)c2cn(Cc3cccc(Cl)c3)c3ccccc3c2=O)cc1C` [Example 240], the IC50 is under 100 nM. In the case of `O=C(c1ccc(N2CCCC2)nc1)c1cn(Cc2cccc(Br)n2)c2ccccc2c1=O` [Example 241], the IC50 was in the range of 100 to 500 nM. Turning to `COc1ccc(C(=O)c2cn(Cc3cccc(Br)n3)c3ccccc3c2=O)nc1C` [Example 242], the IC50 was under 100 nM. As to `COc1ccc(C(=O)c2cn(Cc3cccc(Cl)c3)c3ccccc3c2=O)cc1` [Example 243], the IC50 is under 100 nM. For `CCc1ccc(C(=O)c2cn(Cc3cccc(Cl)c3)c3ccccc3c2=O)cn1` [Example 244], the IC50 lay in the range of 100 to 500 nM. Take `CN(C)c1ccc(C(=O)c2cn(Cc3cccc(Cl)c3)c3ccccc3c2=O)cn1` [Example 245]: the IC50 was under 100 nM. Regarding `COc1ccc(C(=O)c2cn(Cc3cccc(Cl)c3)c3ccccc3c2=O)cn1` [Example 246], the IC50 is under 100 nM.
